From patent US12286452B2, “Amphiphilic aminoglycoside connexin hemichannel inhibitors” (Texas Tech University System, priority 2018, dated 2025)
Converted amounts (≈) assume the structure as drawn. Like-named read-outs stand apart in the source and are kept apart here.

Columns and labels:
Format in all cases: cell-based
[1] = system: Staphylococcus aureus (ATCC25923); test: Antibacterial assay (MIC); conditions: read-out: MIC against S. aureus
Description: Antibacterial assay: The minimum inhibitory concentration (MIC) of the newly synthesized compounds was tested against E. coli (ATCC 25922) and Staphylococcus aureus (ATCC25923). The concentration of bacteria grown in Lysogeny Broth (LB) was adjusted to an absorbance at 600 nm (OD600) of 0.08-0.1 using LB. A series of 2-fold dilutions was made for each compound in 96-well plates (USA Scientific CC7682-7596) starting from 256 μg/mL, and then, 50 μL of the diluted bacteria suspension was transferred to the wells. Bacteria were incubated for 18-24 h at 35° C. before measuring OD600 to assess growth. Experiments for each compound were done at least in duplicates.

human Cx26 HCs = target: T1, human Cx26 HCs (Homo sapiens, UniProt P29033); test: Cx26-dependent growth complementation assay in E. coli LB2003; conditions: for IC50: first Table 2, read-out: IC50, inhibition of Cx26 by synthetic AGs
T1 construct: expressed in transfected cells; host or cells: E. coli LB2003 (carrying pREP4), transformed with pQE-Cx26, IPTG-induced
Description: These derivatives were prepared by sequential benzylation and methylation followed by reduction of azido groups or hydrogenolysis of the Bn. […] Connexin HC inhibition was conducted using a bacteria-based assay of HC function^39. In this assay, Cx26 HCs are expressed in E. coli LB2003 cells, which lack three major K^+ uptake systems (Kdp, Kup and Trk), and as a result they cannot grow in low-[K^+] media^39-41. However, growth of this E. coli strain in low-[K^+] medium can be rescued by expression of K^+-permeable channels such as connexin HCs^39, 42-43. Under the conditions of the assay (LB2003 cells expressing HCs and grown in low-K^+ medium), inhibition of the HCs reduces or abolishes growth^39, 42-43. This is a simple assay where bacterial growth in multi-well plates can be followed by measuring the absorbance at 600 nm (OD600)^29.
LB2003 cells generously provided by Dr. E. P. Bakker (Osnabruk University, Osnabruk, Germany) were transformed with the plasmid pQE-Cx26 (human Cx26 into pQE60) and pREP4. […] LB2003 cells cannot grow in low-[K^+] media because of insufficient K^+ uptake for growth due to the knockout of three key K^+ transporters (Atrk, Akup, Akdp strain)^2-4. Details and validation of the growth complementation assay have been published recently^2. In brief, competent LB2003 containing the pREP4 plasmid were transformed with pQE-Cx26. These cells were grown overnight in Luria-Bertani medium (BD, Franklin Lakes, NJ, USA) supplemented with 100 mM KCl (to allow growth) and 0.4 mg/mL ampicillin, and then washed four times with NLM (see below), to remove residual K^+ from the Luria-Bertani medium. The washed cells were resuspended in complementation growth medium to an OD600 of 0.2. NLM contained 46 mM Na2HPO4, 23 mM NaH2PO4, 8 mM (NH4)2SO4, 0.4 mM MgSO4, 0.012 mM FeSO4, 1 mM sodium citrate, 44 mM glucose and 0.006 mM thiamine hydrochloride, pH 7.0. KLM had the same composition that NLM except for the equimolar replacement of Na^+ with K^+. For growth complementation we used NLM+4 mM KCl, and Cx26 expression was induced with 0.5 mM IPTG at the time of dilution to OD600=0.2. For the assay, the cells were seeded in 96-well plates and were incubated at 30° C., with shaking at 500 rpm. OD600 was measured after 18-h incubation in a plate reader. The initial OD600=0.2 was subtracted for growth calculations. Data are presented as means±SEM. Statistically significant differences were calculated by the Student t-test for unpaired data. Data were obtained from at least 3 independent experiments, with 3 repeats per experiment.

Cx43 HCs = target: T2, Cx43 HCs (Homo sapiens, UniProt P17302); test: Cx43-dependent growth complementation assay in E. coli LB2003
T2 construct: expressed in transfected cells

[2] = K46 members, the 20th table, read-out: IC50 (μM) against Cx43

T2 sequence (P17302 whole entry): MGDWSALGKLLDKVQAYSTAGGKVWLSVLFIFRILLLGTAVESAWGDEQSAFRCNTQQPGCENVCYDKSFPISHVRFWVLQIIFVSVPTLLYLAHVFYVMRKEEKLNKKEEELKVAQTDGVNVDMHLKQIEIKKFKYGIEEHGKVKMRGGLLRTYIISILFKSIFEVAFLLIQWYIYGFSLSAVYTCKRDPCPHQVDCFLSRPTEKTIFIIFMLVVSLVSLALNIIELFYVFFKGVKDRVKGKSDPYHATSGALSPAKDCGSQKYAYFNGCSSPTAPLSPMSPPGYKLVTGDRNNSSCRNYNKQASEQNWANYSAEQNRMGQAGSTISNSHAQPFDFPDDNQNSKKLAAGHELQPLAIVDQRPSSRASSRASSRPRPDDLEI

MIC [1] [mg/mL]	IC50 (human Cx26 HCs) [µM]	IC50 (Cx43 HCs; [2]) [µM]	Cx43 Imax (maximal inhibition) (Cx43 HCs; the 12th table, Hill fit) [%]	IC50 (Cx43 HCs; the 12th table, Hill fit, mean ± SEM, some n = 1, read-out: Cx43 IC50) [µM]	Cx26 Imax (human Cx26 HCs; the 13th table) [%]	Cx43 Imax (Cx43 HCs; the 13th table) [%]	IC50 (Cx43 HCs; the 13th table, read-out: Cx43 IC50) [µM]	Structure (SMILES)
64 (≈ 83.7 mM)	6.6 ± 0.5	15	122	15	–	–	–	NCC1OC(OC2C(N)CC(N)C(OC3OC(COCc4cccc5ccccc45)C(OCc4cccc5ccccc45)C(N)C3O)C2O)C(O)C(O)C1O (centres unmarked) [Compound 15, 4″,6″-Di-O-(1-naphthalenmethyl) kanamycin]
16 (≈ 19.6 mM)	6.2 ± 0.7	5.5 ± 2	–	–	102 ± 2	121 ± 25	5.5 ± 2	NCC1OC(OC2C(N)CC(N)C(OC3OC(COCc4cccc(-c5ccccc5)c4)C(OCc4cccc(-c5ccccc5)c4)C(N)C3O)C2O)C(O)C(O)C1O (centres unmarked) [Compound 16, 4″,6″-Di-O-(3-phenylbenzyl)-kanamycin]
